In patent publication US7626030B2, “Compounds and methods of use” (Amgen Inc., priority 2004, dated 2009) one finds IC50 data, which are given here for 15 compounds.

The structures appear in SMILES notation.

The first experiment deals with T1, c-Met in PC3 cells (Homo sapiens, UniProt P08581).
T1 construct: host or cells: PC3 cells
T1 sequence (P08581 25-1390): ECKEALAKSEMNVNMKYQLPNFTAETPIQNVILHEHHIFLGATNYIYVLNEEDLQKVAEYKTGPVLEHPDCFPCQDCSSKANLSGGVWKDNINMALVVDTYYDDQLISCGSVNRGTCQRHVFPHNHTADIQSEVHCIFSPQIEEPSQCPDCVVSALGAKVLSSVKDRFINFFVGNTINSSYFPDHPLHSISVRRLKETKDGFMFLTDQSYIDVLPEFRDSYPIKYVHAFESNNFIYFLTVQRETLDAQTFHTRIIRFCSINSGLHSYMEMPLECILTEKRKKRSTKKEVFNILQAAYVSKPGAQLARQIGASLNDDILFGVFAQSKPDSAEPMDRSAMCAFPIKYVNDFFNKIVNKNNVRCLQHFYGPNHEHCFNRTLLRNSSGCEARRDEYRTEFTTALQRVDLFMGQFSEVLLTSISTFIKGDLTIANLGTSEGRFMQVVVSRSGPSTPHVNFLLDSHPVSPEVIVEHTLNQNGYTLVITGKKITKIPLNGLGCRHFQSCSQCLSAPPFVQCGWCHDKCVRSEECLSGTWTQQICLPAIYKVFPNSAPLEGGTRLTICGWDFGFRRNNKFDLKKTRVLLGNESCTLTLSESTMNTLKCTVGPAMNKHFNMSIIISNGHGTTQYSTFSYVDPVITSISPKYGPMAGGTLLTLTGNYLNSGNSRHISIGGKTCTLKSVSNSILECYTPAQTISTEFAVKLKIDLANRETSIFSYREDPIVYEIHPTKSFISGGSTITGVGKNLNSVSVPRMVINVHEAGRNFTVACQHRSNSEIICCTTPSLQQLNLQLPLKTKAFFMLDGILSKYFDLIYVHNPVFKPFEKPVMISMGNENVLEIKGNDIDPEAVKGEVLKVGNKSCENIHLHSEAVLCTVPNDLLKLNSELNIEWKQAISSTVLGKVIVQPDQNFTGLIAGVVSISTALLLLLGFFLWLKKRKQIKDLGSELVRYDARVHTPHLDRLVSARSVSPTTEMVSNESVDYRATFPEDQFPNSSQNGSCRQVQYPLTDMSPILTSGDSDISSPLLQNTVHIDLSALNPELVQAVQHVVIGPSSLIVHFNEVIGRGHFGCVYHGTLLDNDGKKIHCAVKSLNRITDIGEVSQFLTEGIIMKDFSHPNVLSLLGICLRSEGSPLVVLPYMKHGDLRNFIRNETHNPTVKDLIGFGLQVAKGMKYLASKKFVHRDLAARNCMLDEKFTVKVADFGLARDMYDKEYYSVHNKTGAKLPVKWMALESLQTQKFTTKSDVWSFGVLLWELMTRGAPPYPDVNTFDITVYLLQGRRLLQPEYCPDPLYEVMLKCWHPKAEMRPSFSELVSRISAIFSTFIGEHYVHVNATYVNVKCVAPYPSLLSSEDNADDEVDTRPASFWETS
Briefly: c-Met cell-based autophosphorylation assay, PC3 cells. As to conditions: HGF-stimulated. As for the experimental part: c-Met Cell-Based Autophosphorylation Assay
Human PC3 and mouse CT26 cells are available obtained from ATCC. The cells were cultured in a growth medium containing RPMI 1640, penicillin/streptomycin/glutamine (1×) and 5% FBS. 2×10^4 cells in medium were plated per well in a 96 well plate and incubated at 37° C. overnight. The cells were serum-starved by replacing the growth media with basic medium (DMEM low glucose+0.1 BSA, 120 μL per well) at 37° C. for 16 h. Compounds (either 1 mM and 0.2 mM) in 100% DMSO were serially diluted (1:3) 3333 fold on a 96 well plate, diluting 1:3 with DMSO from column 1 to 11 (columns 6 and 12 receive no compound). Compound samples (2.4 μL per well) were diluted with basic medium (240 μL) in a 96 well plate. The cells were washed once with basic medium (GIBCO, DMEM 11885-076) then compound solution was added (100 μL). The cells were incubated at 37° C. for 1 h. A (2 mg/mL) solution of CHO-HGF (7.5 μL) was diluted with 30 mL basic medium to provide a final concentration of 500 ng/mL. This HGF-containing media (120 μL) was transferred to a 96 well plate. Compounds (1.2 μL) was added to the HGF-containing media and mixed well. The mixture of media/HGF/compound (100 μL) was added to the cells (final HGF concentration—250 ng/mL) then incubated at 37° C. for 10 min. A cell lysate buffer (20 mL) was prepared containing 1% Triton X-100, 50 mM Tris pH 8.0, 100 mM NaCl, Protease inhibitor (Sigma, #P-8340) 200 μL, Roche Protease inhibitor (Complete, # 1-697-498) 2 tablets, Phosphatase Inhibitor II (Sigma, #P-5726) 200 μL, and a sodium vanadate solution (containing 900 μL PBS, 100 μL 300 mM NaVO3, 6 μl H2O2 (30% stock) and stirred at RT for 15 min) (90 μL). The cells were washed once with ice cold 1×PBS (GIBCO, #14190-136), then lysis buffer (60 μL) was added and the cells were incubated on ice for 20 min.
The IGEN assay was performed as follows: Dynabeads M-280 streptavidin beads were pre-incubated with biotinylated anti-human HGFR (240 μL anti-human-HGFR (R&D system, BAF527 or BAF328) @ 100 μg/mL+360 μL Beads (IGEN #10029+5.4 μL buffer−PBS/1% BSA/0.1% Tween20) by rotating for 30 min at RT. Antibody beads (25 μL) were transferred to a 96 well plate. Cell lysate solution (25 μL) was transferred added and the plate was shaken at RT for 1 h. Anti-phosphotyrosine 4G10 (Upstate 05-321) (19.7 μL antibody+6 mL 1×PBS) (12.5 μL) was added to each well, then incubated for 1 h at RT. Anti-mouse IgG ORI-Tag (ORIGEN #110087) (24 μL Antibody+6 mL buffer) (12.5 μL) was added to each well, then incubated at RT for 30 min. 1×PBS (175 μL) was added to each well and the electrochemiluminescence was read by an IGEN M8. Raw data was analyzed using a 4-parameter fit equation in XLFit. IC50 values are then determined using Grafit software.
Consider `Cc1cc(Oc2ccc3nc(NC(=O)Cc4ccccc4)sc3c2)ccn1` [Example 82, N-[6-(2-Methyl-pyridin-4-yloxy)-benzothiazol-2-yl]-2-phenyl-acetamide], for which the IC50 was under 1000 nM.
The same measure, in the same setting: the figure for `COc1cc2nccc(Oc3ccc4nc(NC(=O)c5ccsc5)sc4c3)c2cc1OC` [Example 46, Thiophene-3-carboxylic acid [6-(6,7-dimethoxy-quinolin-4-yloxy)-benzothiazol-2-yl]-amide] is under 1000 nM; for `COc1cc2c(Oc3ccc4nc(NC(=O)c5ccccc5)sc4c3)ccnc2cc1OCCCN(C)C` [Example 102, N-(6-((7-((3-(dimethylamino)propyl)oxy)-6-(methoxy)-4-quinolinyl)oxy)-1,3-benzothiazol-2-yl)benzamide] it is under 1000 nM.
The same measure, in the same setting: the result for `COc1cc2c(Oc3ccc4nc(NC(=O)c5ccsc5)sc4c3)ccnc2cc1OCCCN1CCOCC1` [Example 104, N-(6-((6-(methoxy)-7-((3-(4-morpholinyl)propyl)oxy)-4-quinolinyl)oxy)-1,3-benzothiazol-2-yl)-1-3-thiohenecarboxamide] reads under 1000 nM; that for `COc1cc2nccc(Oc3ccc4oc(Nc5ccc(Cl)cc5)nc4c3)c2cc1OC` [Example 96, 5-((6,7-bis(methoxy)-4-quinolinyl)oxy)-N-(4-chlorophenyl)-1,3-benzoxazol-2-amine], under 1000 nM.

The subject of the next experiment is Human Umbilical Vein Endothelial cells. Briefly: HUVEC proliferation assay (VEGF-stimulated). Format: cell-based. The following applies: read-out: inhibition of VEGF-stimulated HUVEC proliferation, level. As for the experimental part: HUVEC Proliferation Assay
Human Umbilical Vein Endothelial cells are purchased from Clonetics, Inc., as cryopreserved cells harvested from a pool of donors. These cells, at passage 1, are thawed and expanded in EBM-2 complete medium, until passage 2 or 3. The cells are trypsinized, washed in DMEM+10% FBS+antibiotics, and spun at 1000 rpm for 10 min. Prior to centrifugation of the cells, a small amount is collected for a cell count. After centrifugation, the medium is discarded, and the cells are resuspended in the appropriate volume of DMEM+10% FBS+antibiotics to achieve a concentration of 3×10^5 cells/mL. Another cell count is performed to confirm the cell concentration. The cells are diluted to 3×10^4 cells/mL in DMEM+10% FBS+antibiotics, and 100 μL of cells are added to a 96-well plate. The cells are incubated at 37° C. for 22 h.
Prior to the completion of the incubation period, compound dilutions are prepared. Five-point, five-fold serial dilutions are prepared in DMSO, at concentrations 400-fold greater than the final concentrations desired. 2.5 μL of each compound dilution are diluted further in a total of 1 mL DMEM+10% FBS+antibiotics (400× dilution). Medium containing 0.25% DMSO is also prepared for the […]. At the 22 h timepoint, the medium is removed from the cells, and 100 μL of each compound dilution is added. The cells are incubated at 37° C. for 2-3 h.
During the compound pre-incubation period, the growth factors are diluted to the appropriate concentrations. Solutions of DMEM+10% FBS+antibiotics, containing either VEGF or bFGF at the following concentrations: 50, 10, 2, 0.4, 0.08, and 0 ng/mL are prepared. For the compound-treated cells, solutions of VEGF at 550 ng/mL or bFGF at 220 ng/mL for 50 ng/mL or 20 ng/mL final concentrations, respectively, are prepared since 10 μL of each will be added to the cells (110 μL final volume). At the appropriate time after adding the compounds, the growth factors are added. VEGF is added to one set of plates, while bFGF is added to another set of plates. For the growth factor control curves, the media on wells B4-G6 of plates 1 and 2 are replaced with media containing VEGF or bFGF at the varying concentrations (50-0 ng/mL). The cells are incubated at 37° C. for an additional 72 h.
At the completion of the 72 h incubation period, the medium is removed, and the cells are washed twice with PBS. After the second wash with PBS, the plates are tapped gently to remove excess PBS, and the cells are placed at −70° C. for at least 30 min. The cells are thawed and analyzed using the CyQuant fluorescent dye (Molecular Probes C-7026), following the manufacturer's recommendations. The plates are read on a Victor/Wallac 1420 workstation at 485 nm/530 nm (excitation/emission). Raw data are collected and analyzed using a 4-parameter fit equation in XLFit. IC50 values are then determined.
Turning to `COc1cc2nccc(Oc3ccc4c(NC(=O)c5cc(C(F)(F)F)cc(C(F)(F)F)c5)nn(C)c4c3)c2cc1OC` [Example 138, N-(6-((6,7-bis(methoxy)-4-quinolinyl)oxy)-1-methyl-1H-indazol-3-yl)-3,5-bis(trifluoromethyl)benzamide], the IC50 was under 500 nM.
Same read-out and setting: the result for `COc1cc2nccc(Oc3ccc4c(NC(=O)Nc5ccccc5)nn(C)c4c3)c2cc1OC` [Example 144, N-(6-((6,7-bis(methoxy)-4-quinolinyl)oxy)-1-methyl-1H-indazol-3-yl)-N′-phenylurea] reads under 500 nM; that for `COc1ccc(NC(=O)Nc2nn(C)c3cc(Oc4ccnc5cc(OC)c(OC)cc45)ccc23)cc1` [Example 145, N-(6-((6,7-bis(methoxy)-4-quinolinyl)oxy)-1-methyl-1H-indazol-3-yl)-N′-(4-(methyloxy)phenyl)urea], under 500 nM.
Same read-out and setting: the figure for `COc1cc2nccc(Oc3ccc4c(NC(=O)c5ccc(C(F)(F)F)cc5)nn(C)c4c3)c2cc1OC` [Example 135, N-(6-((6,7-bis(methoxy)-4-quinolinyl)oxy)-1-methyl-1H-indazol-3-yl)-4-(trifluoromethyl)benzamide] is under 500 nM; for `COc1cc2nccc(Oc3ccc4c(NC(=O)Nc5ccc(C)cc5)nn(C)c4c3)c2cc1OC` [Example 142, N-(6-((6,7-bis(methoxy)quinolinyl)oxy)-1-methyl-1H-indazol-3-yl)-N′-(4-methylphenyl)urea] it is under 500 nM.
Same read-out and setting: the result for `COc1cc2nccc(Oc3ccc4c(NC(=O)c5ccc(F)c(Cl)c5)nn(C)c4c3)c2cc1OC` [Example 137, N-(6-((6,7-bis(methoxy)-4-quinolinyl)oxy)-1-methyl-1H-indazol-3-yl)-3-chloro-4-fluorobenzamide] reads under 500 nM; that for `COc1cc2nccc(Oc3ccc4c(NC(=O)c5ccc(Cl)cc5)nn(C)c4c3)c2cc1OC` [Example 134, N-(6-((6,7-bis(methoxy)-4-quinolinyl)oxy)-1-methyl-1H-indazol-3-yl)-4-chlorobenzamide], under 500 nM.
For the compound `COc1cc2nccc(Oc3ccc4c(NC(=O)c5cc(Cl)ccn5)nn(C)c4c3)c2cc1OC` [Example 140, N-(6-((6,7-bis(methoxy)-4-quinolinyl)oxy)-1-methyl-1H-indazol-3-yl)-4-chloro-2-pyridinecarboxamide], the IC50 is under 500 nM.
On the same count and under the same terms, the result for `COc1cc2nccc(Oc3ccc4c(NC(=O)c5cccc(C)c5)nn(C)c4c3)c2cc1OC` [Example 139, N-(6-((6,7-bis(methoxy)-4-quinolinyl)oxy)-1-methyl-1H-indazol-3-yl)-3-methylbenzamide] reads under 500 nM.
As to `COc1ccc(C(=O)Nc2nn(C)c3cc(Oc4ccnc5cc(OC)c(OC)cc45)ccc23)cc1` [Example 132, N-(6-((6,7-bis(methyloxy)-4-quinolinyl)oxy)-1-methyl-1H-indazol-3-yl)-4-(methyloxy)benzamide], the IC50 was under 500 nM.
